Assay results taken from US12583834B2, “Method of treating bacterial infections and pharmaceutical composition for treating bacterial infections” (Institut National de Recherche pour l'Agriculture, …, priority 2020, dated 2026).
“Also recorded” adds a separate entry of the source.

Assays:
B. cereus (Bc 407) [1] = assay: Mouse systemic infection model, B. cereus bacterial load in organs; assay type: in vivo, C57BL/6JRj mice; conditions: mice, B. cereus 4×10^6 CFU i.p., 12 mg/kg i.p., 6 h after infection; lung, liver and spleen; FIG. 8
Method: The efficiency of the compound of the invention (Ia) against a bacterial pathogen was assessed in a mouse model of infection (systemic infection model). Eight weeks old female C57BL/6JRj (Janvier Labs) mice were infected with B. cereus (Bc 407) (4×10^6 CFU) by intraperitoneal injection (100 μL). 100 μl of compound of the invention (Ia) in DMSO at a dose of 12 mg/kg, or of the vehicle alone (DMSO), were further injected to the mice by intraperitoneal injection. 6 h after the infection mice were sacrificed by cervical dislocation. Mice organs were collected and homogenized in cold Phosphate Buffered Saline (PBS). Bacteria burdens in organs were determined by plating serially dilution of the homogenate on LB agar media. The results obtained are shown on FIG. 8 in a/ for the lung, in b/ for the liver and in c/ for the spleen. In these figures, the data are represented as mean+/−SEM from 3 different experiments with 6-8 mice per group. Each point represents one animal.

[2] = test system: K. pneumoniae (CIP700603); assay: Antimicrobial activity during nitric oxide stress, K. pneumoniae; assay type: cell-based, Klebsiella pneumoniae; conditions: 4 h at 37° C. under nitric oxide stress, 10 to 200 μM, FIG. 4
Method: (§1) The power of compound (Ia) to inhibit bacterial growth, specifically in the presence of in vitro-produced nitric oxide, is measured for different bacterial species: Bacillus cereus and two antibiotherapy challenging bacteria, regarding medical interest and therapeutic needs, namely Klebsiella pneumoniae and Acinetobacter baumannii.
(§2) Gram-positive B. cereus (Bc 407) and Gram-negative K. pneumoniae (CIP700603) and A. baumannii (CIP7034) strains were grown to exponential phase in Luria-Bertani (LB) medium. Bacteria solution were prepared in Roswell Park Memorial Institute (RPMI) medium and 150 μL were dispatched into 96-wells plate. To measure effect of compound (Ia), bacteria were exposed to 50 μL of NO at a concentration that induces a survival below 90% compared to the condition without NO, in absence (0 μM) or presence (at a dose ranging from 10 to 200 μM) of compound (Ia).
(§3) Bacteria survival rate was quantified after 4 h at 37° C. by normalizing bacterial load in (Ia)-treated samples against that in DMSO-treated samples (0 μM of (Ia)).
(§4) The results obtained are shown in FIG. 3 for B. cereus, in FIG. 4 for K. pneumoniae and in FIG. 5 for A. baumanii. In these bar graphs the data represent the mean of duplicate experiment of N=3/12+/−SEM. Two-tailed t-student tests are employed to investigate statistical differences, using GraphPad Prism.

Bacillus cereus (Bc 407) = assay: Survival of silkworm larvae infected with B. cereus; assay type: in vivo; conditions: Bombyx mori larvae, B. cereus 1×10^2 CFU, 0.3 to 5.5 μg/g injected with the bacteria, 24 h at 27° C.; FIG. 6
Mfd from E. coli = Mfd from E. coli (Escherichia coli, UniProt P30958); assay: Inhibition of Mfd ATPase activity in vitro (BIOMOL Green phosphate release); assay type: biochemical; conditions: for relative inhibition of E. coli Mfd ATPase activity with respect to the vehicle (DMSO): 100 μM compound, ATP 0.035 mM and 0.070 mM, FIG. 1
Method: Mfd enzyme activity was evaluated by measuring the quantity of inorganic phosphate (PO4i) released using BIOMOL® Green reagent microtiter-plate assay (Enzo Life Sciences). Mfd from E. coli (0.35 μM) was incubated with DMSO or with the tested compounds at a concentration of 100 μM in DMSO, for 10 min at 37° C. ATPase reaction was measured in Tris pH8 0.05M; NaCl 0.3M; DTT 0.002M; MgCl2 0.0025M; DMSO 2%; containing ATP (at different concentrations between 0.0022 and 0.279 mM) for 30 min at 37° C. 50 μL of each reaction medium was transferred into clear, flat-bottom 96-well plates and the reaction was terminated by the addition of 100 μl of BIOMOL® Green reagent. The absorbance at 620 nm was measured in a microplate reader (Tecan). The absorbance values were then transformed into nmols of PO4i released based on a PO4i standard curve prepared as recommended by the supplier.
The potency of each compound is calculated relative to the vehicle DMSO control. Each point is the mean of duplicate experiments of N=2+/−SEM (Standard error of the Mean).
Mfd ATPase activity at ATP concentrations ranging from 0 to 0.279 mM was measured in the same conditions as described above, without and with presence of various doses of compound (Ia): 0 μM, 3 μM, 10 μM, 30 μM, 65 μM and 100 μM. Curves were fit to the Michaelis-Menten equation with the GraphPad PRISM software. Results are the mean of duplicate experiment of N=3-10+/−SEM.

Bombyx mori larvae = assay: Toxicity towards silkworm larvae; assay type: in vivo; conditions: 0.3 to 5.5 μg/g injected
B. cereus (Bc 407) [3] = assay: Antimicrobial activity during nitric oxide stress, B. cereus; assay type: cell-based, Bacillus cereus; conditions: 4 h at 37° C. under nitric oxide stress, 10 to 200 μM, FIG. 3
Method: as §1, §2, §3, §4

A. baumannii (CIP7034) = assay: Antimicrobial activity during nitric oxide stress, A. baumannii; assay type: cell-based, Acinetobacter baumannii; conditions: A. baumanii, 4 h at 37° C. under nitric oxide stress, 10 to 200 μM; FIG. 5
Method: as §1, §2, §3, §4

[4] = test system: Pseudomonas aeruginosa (CIP27853); assay: Survival of silkworm larvae infected with P. aeruginosa; assay type: in vivo; conditions: Bombyx mori larvae, P. aeruginosa 1×10^4 CFU, 0.3 to 5.5 μg/g injected with the bacteria, 24 h at 27° C.; effect at higher doses; FIG. 7

Sequence of Mfd from E. coli (P30958 whole entry): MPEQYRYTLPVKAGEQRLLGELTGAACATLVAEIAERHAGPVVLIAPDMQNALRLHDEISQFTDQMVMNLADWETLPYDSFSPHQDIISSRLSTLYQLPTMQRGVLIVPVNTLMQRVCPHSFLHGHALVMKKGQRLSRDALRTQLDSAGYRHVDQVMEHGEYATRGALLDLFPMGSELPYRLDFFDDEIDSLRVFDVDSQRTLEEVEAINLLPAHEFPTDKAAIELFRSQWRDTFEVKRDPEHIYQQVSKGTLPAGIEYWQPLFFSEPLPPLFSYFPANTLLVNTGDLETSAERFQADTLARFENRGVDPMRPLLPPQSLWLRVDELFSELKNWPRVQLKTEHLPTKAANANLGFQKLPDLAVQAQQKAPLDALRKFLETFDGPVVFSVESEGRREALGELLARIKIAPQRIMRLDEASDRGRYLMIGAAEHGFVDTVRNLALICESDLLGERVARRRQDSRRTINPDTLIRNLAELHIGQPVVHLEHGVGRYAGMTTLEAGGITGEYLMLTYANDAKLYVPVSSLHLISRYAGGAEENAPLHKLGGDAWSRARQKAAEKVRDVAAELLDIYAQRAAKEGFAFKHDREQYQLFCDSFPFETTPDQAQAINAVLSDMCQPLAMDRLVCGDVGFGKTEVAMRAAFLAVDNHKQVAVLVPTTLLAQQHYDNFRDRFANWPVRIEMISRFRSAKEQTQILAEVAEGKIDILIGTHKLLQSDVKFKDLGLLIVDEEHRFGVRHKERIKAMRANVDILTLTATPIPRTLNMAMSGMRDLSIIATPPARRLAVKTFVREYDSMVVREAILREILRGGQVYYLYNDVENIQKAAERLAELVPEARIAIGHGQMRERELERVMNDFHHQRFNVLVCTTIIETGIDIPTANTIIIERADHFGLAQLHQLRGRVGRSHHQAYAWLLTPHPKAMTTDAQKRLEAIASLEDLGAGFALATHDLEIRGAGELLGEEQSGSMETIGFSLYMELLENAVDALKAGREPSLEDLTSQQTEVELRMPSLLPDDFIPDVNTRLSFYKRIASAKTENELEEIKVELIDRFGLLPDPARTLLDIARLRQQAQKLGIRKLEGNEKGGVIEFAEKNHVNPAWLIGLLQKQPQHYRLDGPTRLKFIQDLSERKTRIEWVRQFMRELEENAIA

| SMILES | bacterial load in organs (B. cereus (Bc 407) [1]) | bacteria survival / resistance to NO in vitro [2] | survival of infected larvae (protective effect) (Bacillus cereus (Bc 407)) | mode of inhibition of Mfd ATPase activity (Mfd from E. coli; 0-100 μM (Ia), ATP 0 to 0.279 mM, Michaelis-Menten fit, FIG. 2) | relative inhibition of E. coli Mfd ATPase activity with respect to the vehicle (DMSO) (Mfd from E. coli) | toxicity towards the insects (Bombyx mori larvae) | bacteria survival / resistance to NO in vitro (B. cereus (Bc 407) [3]) | bacteria survival / resistance to NO in vitro (A. baumannii (CIP7034)) | survival of infected larvae (protective effect) [4] |
| --- | --- | --- | --- | --- | --- | --- | --- | --- | --- |
| CN(C)S(=O)(=O)c1ccc(S(=O)(=O)N2CCC(n3c(=O)[nH]c4ccccc43)CC2)cc1 [compound (Ia), N,N-dimethyl-4-{[4-(2-oxo-2,3-dihydro-1H-1,3-benzodiazol-1-yl)piperidin-1-yl]sulfonyl}benzene-1-sulfonamide] | decreases the bacterial load in all these organs | reduces bacteria resistance to NO in vitro | significant protective effect | competitive inhibitor of Mfd ATPase activity | much higher capacity of inhibition of the Mfd ATPase activity than the comparative compounds; also recorded: more efficient than compound (Ib) | no toxicity towards the insects | reduces bacteria resistance to NO in vitro | reduces bacteria resistance to NO in vitro | significant protective effect |
| O=c1[nH]c2ccccc2n1C1CCN(c2ccc(S(=O)(=O)N3CCCCC3)cn2)CC1 [compound (Ib)] |  |  |  |  | much higher capacity of inhibition of the Mfd ATPase activity than the comparative compounds |  |  |  |  |
